Source: patent publication US20060128724A1, “Pyrazole-substituted aminoheteroaryl compounds as protein kinase inhibitors” (AGOURON PHARMACEUTICALS, INC., priority 2004, published 2006)

Molecular target: T1, c-MET (HGFR) (Homo sapiens, UniProt P08581)
T1 construct: purchased Upstate 14-526
Experiment: HGFR Continuous-Coupled Spectrophotometric Assay
Type: biochemical
Conditions: for Ki: Met-2 substrate peptide, 50 nM HGFR, 37° C., read-out: c-Met Ki
Excerpt: The following in vitro assay may be used to determine the level of activity and effect of the different compounds of the present invention on one or more of the PKs. Similar assays can be designed along the same lines for any PK using techniques well known in the art.
The general procedure is as follows: compounds and kinase assay reagents are introduced into test wells. The assay is initiated by addition of the kinase enzyme. Enzyme inhibitors reduce the measured activity of the enzyme.
In the continuous-coupled spectrophotometric assay the time-dependent production of ADP by the kinase is determined by analysis of the rate of consumption of NADH by measurement of the decrease in absorbance at 340 nm. As the PK produces ADP it is re-converted to ATP by reaction with phosphoenol pyruvate and pyruvate kinase. Pyruvate is also produced in this reaction. Pyruvate is subsequently converted to lactate by reaction with lactate dehydrogenase, which simultaneously converts NADH to NAD.
HGFR Continuous-Coupled Spectrophotometric Assay
This assay analyzes the tyrosine kinase activity of HGFR on the Met-2 substrate peptide, a peptide derived from the activation loop of the HGFR.
• 1. […] Dissolve up in 200 mM HEPES, pH 7.5 at 10 mM stock. • 3. 1 M PEP (phospho-enol-pyruvate) in 200 mM HEPES, pH 7.5 • 4. 100 mM NADH (B-Nicotinamide Adenine Dinucleotide, Reduced Form) in 200 mM HEPES, pH 7.5 • 5. 4 M MgCl2 (Magnesium Chloride) in ddH2O • 6. 1 M DTT (Dithiothreitol) in 200 mM HEPES, pH 7.5 • 7. 15 Units/mL LDH (Lactic Dehydrogenase) • 8. 15 Units/mL PK (Pyruvate Kinase) • 9. 5M NaCl dissolved in ddH2O • 10. Tween-20 (Protein Grade) 10% Solution • 11. 1 M HEPES buffer: (N-[2-Hydroxethyl]piperazine-N-[2-ethanesulfonic acid]) Sodium Salt. Dissolve in ddH2O, adjust pH to 7.5, bring volume to 1 L. Filter at 0.1 μm. • 12. […] 100% DMSO (SIGMA) • 14. […] Beckman DU-650 w/micro cell holders • 18. Beckman 4-position micro cell cuvette Procedure:
Prep Dilution Buffer (DB) for Enzyme (For 30 mL prep) • 1. DB final concentration is 2 mM DTT, 25 mM NaCl2, 5 mM MgCl2, 0.01% Tween-20, and 50 mM HEPES buffer, pH 7.5. • 2. Make up 50 mM HEPES by adding 1.5 mL 1 M HEPES into 28.1 mL of ddH2O. Add rest of the reagents. Into 50 mL conical vial, add 60 μL of 1M DTT, 150 μL 5M NaCl2, 150 μL 1M MgCl2, and 30 μL of 10% Tween-20 to give total volume of 30 mL. • 3. […] Aliquot out DB at 1 mL/tube and label tubes as “DB HGFR” • 5. Note: This can be prepared and stored ahead of time. • 6. Freeze un-used aliquots in microcentrifuge tubes at −20° C. freezer. […] For compound dilution plate, add 4 μL of 10 mM stock into column 1 of plate, and bring volume to 100 μL with 100% DMSO. • 2. Set up the Precision 2000 dilution method. A final concentration of 200 μM compound in 50% DMSO, 100 mM HEPES (1:2 serial dilution). Prep Coupled Enzymatic Buffer:
1. Final concentration in assay:
• 2. For a 10 mL reaction buffer add 10 μL of 1M PEP, 33 μL of 100 mM NADH, 50 μL of 4M MgCl2, 20 μL of 1M DTT, 6 μL of 500 mM ATP, and 500 μL of 10 mM Met-2 peptide into 100 mM HEPES buffer pH 7.5 and vortex/mix. • 3. Add coupling enzymes, LDH and PK, into reaction mix. Mix by gentle inversion. Running Samples
1. Spectrophotometer settings:
• 2. Add 85 μL of CE reaction mix into each well of assay plate. • 3. Add 5 μL of diluted compound into a well of the assay plate. • 4. Add 5 μL of 50% DMSO for negative control into last column of assay plate. • 5. Mix with multi-channel pipettor or orbital shaker. • 6. Pre-incubate for 10 minutes at 37° C. • 7. Add 10 μL of 500 nM HGFR to each well of assay plate; the final HGFR concentration is 50 nM in a total final volume of 100 μL. • 8. Measure activity for 10 minutes at λ=340 nm and 37° C.

T1 sequence (P08581 974-1390 limits assumed): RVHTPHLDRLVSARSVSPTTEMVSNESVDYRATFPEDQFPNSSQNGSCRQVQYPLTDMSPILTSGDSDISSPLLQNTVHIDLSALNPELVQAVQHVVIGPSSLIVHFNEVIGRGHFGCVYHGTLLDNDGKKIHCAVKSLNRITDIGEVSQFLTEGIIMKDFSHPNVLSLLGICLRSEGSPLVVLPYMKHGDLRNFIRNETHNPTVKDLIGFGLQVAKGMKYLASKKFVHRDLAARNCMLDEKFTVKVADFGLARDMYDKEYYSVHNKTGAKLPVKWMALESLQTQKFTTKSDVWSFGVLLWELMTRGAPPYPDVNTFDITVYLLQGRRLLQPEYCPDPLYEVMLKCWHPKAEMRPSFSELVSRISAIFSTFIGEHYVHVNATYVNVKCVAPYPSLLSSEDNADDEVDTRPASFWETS

CC(Oc1cc(-c2cnn(C3CCN(S(C)(=O)=O)CC3)c2)cnc1N)c1c(Cl)ccc(F)c1Cl (centres unmarked) [Example 50, 3-[1-(2,6-Dichloro-3-fluoro-phenyl)-ethoxy]-5-[1-(1-methanesulfonyl-piperidin-4-yl)-1H-pyrazol-4-yl]-pyridin-2-ylamine]
Ki: 0.01 µM

Nc1ncc(-c2cn[nH]c2)cc1OC1CCCCc2ccc(F)cc21 (centres unmarked) [Example 54, 3-(3-Fluoro-6,7,8,9-tetrahydro-5H-benzocyclohepten-5-yloxy)-5-(1H-pyrazol-4-yl)-pyridin-2-ylamine]
c-Met % Inhibition (test concentration not given): 21%

CCN(CC)C(=O)C(C)(C)n1cc(-c2cnc(N)c(OC(C)c3c(Cl)ccc(F)c3Cl)c2)cn1 (centres unmarked) [Example 55, 2-(4-{6-Amino-5-[1-(2,6-dichloro-3-fluoro-phenyl)-ethoxy]-pyridin-3-yl}-pyrazol-1-yl)-N,N-diethyl-isobutyramide]
Ki: 0.396 µM

CC(Oc1cc(-c2cnn(C(C)(C)C(=O)N3CC[C@H](O)C3)c2)cnc1N)c1c(Cl)ccc(F)c1Cl (stereo partly drawn) [Example 56, 2-(4-{6-Amino-5-[1-(2,6-dichloro-3-fluoro-phenyl)-ethoxy]-pyridin-3-yl}-pyrazol-1-yl)-1-((S)-3-hydroxy-pyrrolidin-1-yl)-2-methyl-propan-1-one]
Ki: 0.47 µM

CC(Oc1cc(-c2cnn(C(C)(C)C(=O)N3CCCC3)c2)cnc1N)c1c(Cl)ccc(F)c1Cl (centres unmarked) [Example 57, 2-(4-{6-Amino-5-[1-(2,6-dichloro-3-fluoro-phenyl)-ethoxy]-pyridin-3-yl}-pyrazol-1-yl)-2-methyl-1-pyrrolidin-1-yl-propan-1-one]
Ki: 0.425 µM

CC(Oc1cc(-c2cnn(C(C)(C)C(=O)N(C)C)c2)cnc1N)c1c(Cl)ccc(F)c1Cl (centres unmarked) [Example 58, 2-(4-{6-Amino-5-[1-(2,6-dichloro-3-fluoro-phenyl)-ethoxy]-pyridin-3-yl}-pyrazol-1-yl)-N,N-dimethyl-isobutyramide]
Ki: 0.125 µM

CC(Oc1cc(-c2cnn(C(C)(C)CO)c2)cnc1N)c1c(Cl)ccc(F)c1Cl (centres unmarked) [Example 59, 2-(4-{6-Amino-5-[1-(2,6-dichloro-3-fluoro-phenyl)-ethoxy]-pyridin-3-yl}-pyrazol-1-yl)-2-methyl-propan-1-ol]
Ki: 0.014 µM

CC(Oc1cc(-c2cnn(C(C)(C)CN(C)C)c2)cnc1N)c1c(Cl)ccc(F)c1Cl (centres unmarked) [Example 60, 3-[1-(2,6-Dichloro-3-fluoro-phenyl)-ethoxy]-5-[1-(2-dimethylamino-1,1-dimethyl-ethyl)-1H-pyrazol-4-yl]-pyridin-2-ylamine]
Ki: 0.084 µM

CC(Oc1cc(-c2cnn(C(C)(C)CN3CC[C@H](O)C3)c2)cnc1N)c1c(Cl)ccc(F)c1Cl (stereo partly drawn) [Example 61, (S)-1-[2-(4-{6-Amino-5-[1-(2,6-dichloro-3-fluoro-phenyl)-ethoxy]-pyridin-3-yl}-pyrazol-1-yl)-2-methyl-propyl]-pyrrolidin-3-ol]
Ki: 0.07 µM

CC(Oc1cc(-c2cnn(C(C)(C)COCCN3CCCC3)c2)cnc1N)c1c(Cl)ccc(F)c1Cl (centres unmarked) [Example 62, 3-[1-(2,6-Dichloro-3-fluoro-phenyl)-ethoxy]-5-{1-[1,1-dimethyl-2-(2-pyrrolidin-1-yl-ethoxy)-ethyl]-1H-pyrazol-4-yl}-pyridin-2-ylamine]
Ki: 0.229 µM

CC(Oc1cc(-c2cnn(C[C@H]3CCCN3)c2)cnc1N)c1c(Cl)ccc(F)c1Cl (stereo partly drawn) [Example 63, 3-[1-(2,6-Dichloro-3-fluoro-phenyl)-ethoxy]-5-(1-(R)-1-pyrrolidin-2-ylmethyl-1H-pyrazol-4-yl)-pyridin-2-ylamine]
Ki: 0.072 µM

CC(Oc1cc(-c2cnn(C[C@@H]3CCCN3)c2)cnc1N)c1c(Cl)ccc(F)c1Cl (stereo partly drawn) [Example 64, 3-[1-(2,6-Dichloro-3-fluoro-phenyl)-ethoxy]-5-(i-(S)-1-pyrrolidin-2-ylmethyl-1H-pyrazol-4-yl)-pyridin-2-ylamine]
Ki: 0.0415 µM

C[C@@H](Oc1nc(-c2cnn(C3CCNCC3)c2)cnc1N)c1c(Cl)ccc(F)c1Cl [Example 66, 3-[(R)-1-(2,6-Dichloro-3-fluoro-phenyl)-ethoxy]-5-(1-piperidin-4-yl-1H-pyrazol-4-yl)-pyrazin-2-ylamine]
Ki: 0.01 µM

C[C@@H](Oc1nc(-c2cn[nH]c2)cnc1N)c1c(Cl)ccc(F)c1Cl [Example 67, 3-[(R)-1-(2,6-Dichloro-3-fluoro-phenyl)-ethoxy]-5-(1H-pyrazol-4-yl)-pyrazin-2-ylamine]
Ki: 0.065 µM

C[C@@H](Oc1nc(-c2cnn(C3CCN(C(=O)CO)CC3)c2)cnc1N)c1c(Cl)ccc(F)c1Cl [Example 68, 1-[4-(4-{5-Amino-6-[(R)-1-(2,6-dichloro-3-fluoro-phenyl)-ethoxy]-pyrazin-2-yl}-pyrazol-1-yl)-piperidin-1-yl]-2-hydroxy-ethanone]
Ki: 0.015 µM

C[C@@H](Oc1nc(-c2cnn(C3CCN(C)CC3)c2)cnc1N)c1c(Cl)ccc(F)c1Cl [Example 69, 3-[(R)-1-(2,6-Dichloro-3-fluoro-phenyl)-ethoxy]-5-[1-(1-methyl-piperidin-4-yl)-1H-pyrazol-4-yl]-pyrazin-2-ylamine]
Ki: 0.03 µM

C[C@@H](Oc1nc(-c2cnn(C3CCN(C(=O)CN(C)C)CC3)c2)cnc1N)c1c(Cl)ccc(F)c1Cl [Example 70, 1-[4-(4-{5-Amino-6-[(R)-1-(2,6-dichloro-3-fluoro-phenyl)-ethoxy]-pyrazin-2-yl}-pyrazol-1-yl)-piperidin-1-yl]-2-dimethylamino-ethanone]
Ki: 0.015 µM

CC(Oc1cc(-c2cnn(S(C)(=O)=O)c2)cnc1N)c1c(Cl)ccc(F)c1Cl (centres unmarked) [Example 71, 3-[1-(2,6-Dichloro-3-fluoro-phenyl)-ethoxy]-5-(1-methanesulfonyl-1H-pyrazol-4-yl)-pyridin-2-ylamine]
Ki: 0.17 µM

C[C@@H](Oc1cc(-c2cnn(C3CCNCC3)c2)cnc1N)c1c(F)ccc(F)c1Cl [Example 72, 3-[(R)-1-(2-Chloro-3,6-difluoro-phenyl)-ethoxy]-5-(1-piperidin-4-yl-1H-pyrazol-4-yl)-pyridin-2-ylamine]
Ki: 0.09 µM

CNCCn1cc(-c2cnc(N)c(OC(C)c3c(Cl)ccc(F)c3Cl)c2)cn1 (centres unmarked) [Example 73, 3-[1-(2,6-Dichloro-3-fluoro-phenyl)-ethoxy]-5-[1-(2-methylamino-ethyl)-1H-pyrazol-4-yl]-pyridin-2-ylamine]
Ki: 0.055 µM

CC(Oc1cc(-c2ccn(C3CCNCC3)n2)cnc1N)c1c(Cl)ccc(F)c1Cl (centres unmarked) [Example 75, 3-[1-(2,6-Dichloro-3-fluoro-phenyl)-ethoxy]-5-(1-piperidin-4-yl-1H-pyrazol-3-yl)-pyridin-2-ylamine]
Ki: 0.038 µM

Cc1ccn(-c2cnc(N)c(OC(C)c3c(Cl)ccc(F)c3Cl)c2)n1 (centres unmarked) [Example 77, 3-[1-(2,6-Dichloro-3-fluoro-phenyl)-ethoxy]-5-(3-methyl-pyrazol-1-yl)-pyridin-2-ylamine]
Ki: 1.92 µM

CC(Oc1cc(-n2ncc3ccccc32)cnc1N)c1c(Cl)ccc(F)c1Cl (centres unmarked) [Example 78, 3-[1-(2,6-Dichloro-3-fluoro-phenyl)-ethoxy]-5-indazol-1-yl-pyridin-2-ylamine]
Ki: 1.56 µM
